Assay results: PubChem BioAssay AID328 (DTP/NCI, 2004)
Toxic doses and inconclusive results are not listed. How the source made its calls: active means survival T/C of 150% or more; inactive means T/C below 125% in these data.

Tested on: BDF1 mice, P388 leukemia ip, median survival T/C
Assay: NCI In Vivo Anticancer Drug Screen. Data for tumor model P388 Leukemia (intraperitoneal) in B6D2F1 (BDF1) mice
Conditions: endpoint: median survival time, higher = longer survival
Method in brief: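 Mice carrying the transplantable tumour receive compound or vehicle. Survival is followed in each arm, and the treated measure is divided by the vehicle measure.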

[1] = dose: 25.0 mg/kg/injection, schedule: Q01DX009 (ip), vehicle: water
[2] = dose: 50.0 mg/kg/injection, schedule: Q01DX009 (ip), vehicle: saline with Tween-80

Measured: T/C

O=NO.O=N[O-].O=N[O-].[Co+3].[NH-]CC[N-]CCO.[NH-]CC[N-]CCO
inactive: [1] 104 % of control | dose: 25.0 mg/kg/injection, schedule: Q04DX003 (ip), vehicle: water 100 % of control | dose: 50.0 mg/kg/injection, schedule: Q01DX009 (ip), vehicle: water 98 % of control | dose: 50.0 mg/kg/injection, schedule: Q04DX003 (ip), vehicle: water 109 % of control | dose: 100.0 mg/kg/injection, schedule: Q04DX003 (ip), vehicle: water 104 % of control

COc1cc(/C(C)=N\O)ccc1O
inactive: dose: 100.0 mg/kg/injection, schedule: Q01DX001 (ip), vehicle: other 100 % of control | dose: 200.0 mg/kg/injection, schedule: Q01DX001 (ip), vehicle: other 100 % of control | dose: 400.0 mg/kg/injection, schedule: Q01DX001 (ip), vehicle: other 100 % of control

O=C1C(=O)c2ccccc2-c2ccccc21
inactive: dose: 0.75 mg/kg/injection, schedule: Q01DX009 (ip), vehicle: carboxymethylcellulose (CMC) 100 % of control | dose: 1.5 mg/kg/injection, schedule: Q01DX009 (ip), vehicle: carboxymethylcellulose (CMC) 109 % of control | dose: 3.0 mg/kg/injection, schedule: Q01DX009 (ip), vehicle: carboxymethylcellulose (CMC) 95 % of control | dose: 6.0 mg/kg/injection, schedule: Q01DX009 (ip), vehicle: carboxymethylcellulose (CMC) 114 % of control

C[n+]1ccc2ccccc2c1CCCc1nccc2ccccc12
inactive: dose: 6.25 mg/kg/injection, schedule: Q01DX009 (ip), vehicle: saline with Tween-80 100 % of control | dose: 12.5 mg/kg/injection, schedule: Q01DX009 (ip), vehicle: saline with Tween-80 120 % of control | dose: 25.0 mg/kg/injection, schedule: Q01DX009 (ip), vehicle: saline with Tween-80 116 % of control

S=C1SCN(Cc2ccccc2)CN1Cc1ccccc1
inactive: dose: 100.0 mg/kg/injection, schedule: Q01DX001 (ip), vehicle: Klucel (hydroxypropylcellulose) (HPC) 113 % of control | dose: 200.0 mg/kg/injection, schedule: Q01DX001 (ip), vehicle: Klucel (hydroxypropylcellulose) (HPC) 100 % of control | dose: 400.0 mg/kg/injection, schedule: Q01DX001 (ip), vehicle: Klucel (hydroxypropylcellulose) (HPC) 100 % of control

C(/C=C/C=C/N1CCCCC1)=[N+]1CCCCC1
inactive: dose: 0.13 mg/kg/injection, schedule: Q01DX009 (ip), vehicle: saline 97 % of control | dose: 0.25 mg/kg/injection, schedule: Q01DX009 (ip), vehicle: saline 104 % of control | dose: 0.5 mg/kg/injection, schedule: Q01DX009 (ip), vehicle: saline 89 % of control | dose: 1.0 mg/kg/injection, schedule: Q01DX009 (ip), vehicle: saline 110 % of control

C=C(Cl)CSCC
inactive: dose: 6.25 mg/kg/injection, schedule: Q04DX003 (ip), vehicle: alcohol 100 % of control | dose: 12.5 mg/kg/injection, schedule: Q01DX009 (ip), vehicle: acetone 118 % of control | dose: 12.5 mg/kg/injection, schedule: Q04DX003 (ip), vehicle: alcohol 105 % of control | dose: 25.0 mg/kg/injection, schedule: Q01DX009 (ip), vehicle: acetone 113 % of control | dose: 25.0 mg/kg/injection, schedule: Q04DX003 (ip), vehicle: alcohol 100 % of control | dose: 45.0 mg/kg/injection, schedule: Q01DX001 (ip), vehicle: saline 109 % of control | dose: 90.0 mg/kg/injection, schedule: Q01DX001 (ip), vehicle: saline 109 % of control | dose: 120.0 mg/kg/injection, schedule: Q04DX003 (ip), vehicle: saline 109 % of control | dose: 180.0 mg/kg/injection, schedule: Q04DX003 (ip), vehicle: saline 95 % of control | dose: 270.0 mg/kg/injection, schedule: Q04DX003 (ip), vehicle: saline 86 % of control

CCOc1ccc(Nc2c3ccccc3nc3ccccc23)cc1
inactive: dose: 0.39 mg/kg/injection, schedule: Q01DX009 (ip), vehicle: Klucel (hydroxypropylcellulose) (HPC) 110 % of control | dose: 0.78 mg/kg/injection, schedule: Q01DX009 (ip), vehicle: Klucel (hydroxypropylcellulose) (HPC) 114 % of control | dose: 1.56 mg/kg/injection, schedule: Q01DX009 (ip), vehicle: Klucel (hydroxypropylcellulose) (HPC) 96 % of control
active: dose: 50.0 mg/kg/injection, schedule: Q01DX009 (ip), vehicle: Klucel (hydroxypropylcellulose) (HPC) 159 % of control

CCOC(=O)C(OCc1ccccc1)(C(=O)Cl)C(C)C (stereo not drawn)
inactive: [2] 118 % of control

F
inactive: dose: 0.25 mg/kg/injection, schedule: Q01DX009 (ip), vehicle: water 113 % of control | dose: 0.5 mg/kg/injection, schedule: Q01DX009 (ip), vehicle: water 95 % of control | dose: 0.62 mg/kg/injection, schedule: Q01DX009 (ip), vehicle: water 86 % of control | dose: 1.25 mg/kg/injection, schedule: Q01DX009 (ip), vehicle: water 100 % of control | dose: 2.5 mg/kg/injection, schedule: Q01DX009 (ip), vehicle: water 95 % of control | dose: 5.0 mg/kg/injection, schedule: Q01DX009 (ip), vehicle: water 100 % of control | dose: 6.25 mg/kg/injection, schedule: Q01DX009 (ip), vehicle: water 100 % of control | dose: 6.25 mg/kg/injection, schedule: Q04DX003 (ip), vehicle: saline 100 % of control | dose: 12.5 mg/kg/injection, schedule: Q01DX009 (ip), vehicle: saline 100 % of control | dose: 12.5 mg/kg/injection, schedule: Q01DX009 (ip), vehicle: water 100 % of control | dose: 12.5 mg/kg/injection, schedule: Q04DX003 (ip), vehicle: saline 100 % of control | dose: 25.0 mg/kg/injection, schedule: Q01DX009 (ip), vehicle: saline 100 % of control | [1] 95 % of control | dose: 25.0 mg/kg/injection, schedule: Q04DX003 (ip), vehicle: saline 100 % of control | dose: 33.0 mg/kg/injection, schedule: Q04DX003 (ip), vehicle: saline 104 % of control | dose: 50.0 mg/kg/injection, schedule: Q04DX003 (ip), vehicle: saline 95 % of control

CN(C)P(=O)(N(C)C)N(C)CC[N+](C)(C)C
inactive: dose: 50.0 mg/kg/injection, schedule: Q01DX009 (ip), vehicle: saline 103 % of control | dose: 100.0 mg/kg/injection, schedule: Q01DX009 (ip), vehicle: saline 101 % of control | dose: 200.0 mg/kg/injection, schedule: Q01DX009 (ip), vehicle: saline 100 % of control

CN(C)c1ccc(C(N)=O)cn1
inactive: dose: 0.51 mg/kg/injection, schedule: Q01DX009 (ip), vehicle: saline 95 % of control | dose: 1.03 mg/kg/injection, schedule: Q01DX009 (ip), vehicle: saline 115 % of control | dose: 2.0 mg/kg/injection, schedule: Q01DX009 (ip), vehicle: saline 90 % of control | dose: 2.06 mg/kg/injection, schedule: Q01DX009 (ip), vehicle: saline 100 % of control | dose: 3.0 mg/kg/injection, schedule: Q04DX003 (ip), vehicle: saline 100 % of control | dose: 3.13 mg/kg/injection, schedule: Q01DX009 (ip), vehicle: saline 100 % of control | dose: 4.12 mg/kg/injection, schedule: Q01DX009 (ip), vehicle: saline 112 % of control | dose: 4.7 mg/kg/injection, schedule: Q01DX009 (ip), vehicle: saline 86 % of control | dose: 6.0 mg/kg/injection, schedule: Q04DX003 (ip), vehicle: saline 100 % of control | dose: 12.0 mg/kg/injection, schedule: Q04DX003 (ip), vehicle: saline 109 % of control | dose: 17.0 mg/kg/injection, schedule: Q04DX003 (ip), vehicle: saline 118 % of control | dose: 40.0 mg/kg/injection, schedule: Q04DX003 (ip), vehicle: saline 95 % of control

[CH3][Ga][CH3].[CH3][Ga][CH3].[CH3][Ga][CH3].[CH3][Ga][CH3].[OH3+].[OH3+].[OH3+].[OH3+]
inactive: dose: 2.5 mg/kg/injection, schedule: Q01DX009 (ip), vehicle: saline with Tween-80 90 % of control

CCCCc1c(C)[nH]c(=S)[nH]c1=O
inactive: dose: 100.0 mg/kg/injection, schedule: Q04DX003 (ip), vehicle: saline with Tween-80 95 % of control | dose: 200.0 mg/kg/injection, schedule: Q04DX003 (ip), vehicle: saline with Tween-80 109 % of control | dose: 400.0 mg/kg/injection, schedule: Q04DX003 (ip), vehicle: saline with Tween-80 95 % of control

CCC(O)C(C)C(O)C(C)C(O)C(C)C(O)C(C)C1OC(=O)CC(O)C(C)C(O)CC(O)CCCC(O)CCC(C)C(O)C2(O)C(=O)CC(CC(O)CC(O)CC(O)CC(O)CCCC(O)C1O)OC2=O (stereo not drawn)
inactive: dose: 2.5 mg/kg/injection, schedule: Q01DX009 (ip), vehicle: saline 92 % of control | dose: 5.0 mg/kg/injection, schedule: Q01DX009 (ip), vehicle: saline 109 % of control | dose: 10.0 mg/kg/injection, schedule: Q01DX009 (ip), vehicle: saline 109 % of control

CS(=O)(=O)/C=C(\c1ccccc1)c1cccs1
inactive: [2] 114 % of control | dose: 100.0 mg/kg/injection, schedule: Q01DX009 (ip), vehicle: saline with Tween-80 100 % of control | dose: 200.0 mg/kg/injection, schedule: Q01DX009 (ip), vehicle: saline with Tween-80 96 % of control
